Laboratory results as given in patent US5681738A, “Use of 10-oxo-trans-8-decenoic acid in mushroom cultivation” (The Penn State Research Foundation, priority 1992, dated 1997).

Columns and labels:
[1] = tested on: Agaricus bisporus mycelia; experiment: Linear growth rate of mycelia on potato dextrose yeast (PDY) agar at 25° C.; assay type: cell-based, Agaricus bisporus (hybrid off-white); conditions: for linear growth rate of mycelia (in words): PDY agar; for Linear growth rate: control 5.66
Description: The commercial mushroom spawn (hybrid off-white), Agaricus bisporus (Lange) Imbach, was obtained from Alpha Spawn Co., Avondale, Pa., and inoculated onto potato dextrose yeast (PDY) agar (Difco) and incubated at 25° C. A pure culture was obtained from the grain spawn grown on petri dishes and re-inoculated into PDY agar and maintained at 25° C. before use.
The mushroom culture was grown on PDY agar or in PDY broth, both containing 0.5% yeast extract. The broth was dispensed into flasks prior to autoclaving, 50 mL. per flask, while 5 mL of sterile ODA solutions were aseptically added into flasks before inoculation.
To prepare ODA solutions, about 18.4 mg (0.1 mmole) of 10-oxo-trans-8-decenoic acid prepared as described above were dissolved in i mL ethanol and diluted with deionized water to 100 mL to give a molar concentration of 10^-3 M, and then diluted in order to add 1.0 mL of the solutions to each flask to give the required final concentrations.
Sterile ODA solutions were aseptically added into the autoclaved agar medium to achieve the desired final ODA concentrations, and then the medium was dispensed into petri dishes, ca 30 ml per dish. The levels of ODA tested included 2×10^-4, 10^-4, 10^-5, 10^-6 and 10^-7 M for both PDY agar and broth. […]
Methods for the estimation of total fungal growth include the measurement of dry matter, linear growth, carbon dioxide evolution, chitin, ATP as well as extracellular laccase activity (Cochrane, (1958); Wood, (1979)). In this research the linear growth rate was used to examine the growth of mushroom mycelia on agar plates, while the extracellular laccase activity and dry matter were determined to estimate the growth of mycelia in liquid cultures. Extracellular laccases (p-diphenol: oxygen oxidoreductase, EC 1.10.3.2) produced by various classes of fungi are reported to be involved in biotransformation of lignin and lignosulfonate (Anders et al., (1976)), as well as in the breakdown of cellulose by cellulase (Westermark et al., (1974a); Westermark et al., (1974b); Haars et al., (1980)). Although the role of laccase in growth and development of Agaricus bisporus is not well defined, it has been observed that laccase production correlated with mycelial biomass of this fungus (Wood, (1979); Matcham et al., (1985); Claydon et al., (1988)).

[2] = tested on: separated stipes of Agaricus bisporus; experiment: Elongation of separated stipes on test agar containing mushroom supernatants, 6-day storage at 12° C.; set-up: species or system Agaricus bisporus (off-white); conditions: as a function of added ODA
Description: Whole stipes were cut at the lower portions to a length of 7-9 mm to standardize the sample, and marked at the middle of the veil, which is the location where the veil attaches to the stipe, to indicate the upper and lower stipes. The separated stipes contained 2-4 mm of upper stipes and 5-6 nun of lower stipes. […] The length of separated stipes and upper stipes was measured using a vernier caliper before and after certain days of storage.
Sterile mushroom supernatants (25 mL), phosphate buffer and deionized H2 O were added aseptically into 175 mL agar solution prior to dispensing into dishes. […] The concentrations of ODA in the 2% agar were calculated to be 3.4×10^-6, 6.0×10^-5, and 1.2×10^-4 M for treatments 3, 4 and 5. […]

[3] = tested on: separated upper stipes of Agaricus bisporus; experiment: Elongation of separated upper stipes on test agar containing ODA, storage at 12° C.; set-up: species or system Agaricus bisporus (hybrid off-white)
Description: Four type strains of mushrooms were used: the white, off-white, hybrid white (U3) and hybrid off-white (U1). Mushrooms from each flush were harvested before the veil was broken. Freshly harvested mushrooms were transported within about one hour after harvest to Borland Laboratory and placed in the pilot plant cold room (4° C.) for about two hours before sampling. Mushrooms were sorted on the basis of size and appearance. Diseased, damaged, misshapen, veil-opened and extremely large or small mushrooms (>40 or <25 mm in cap diameter) were discarded. Mushrooms of uniform size (25-40 mm) and maturity of the button stage (stage 1, veil intact tightly) were used in this research.
Whole stipes were cut at the lower portions to a length of 7-9 mm to standardize the sample, and marked at the middle of the veil, which is the location where the veil attaches to the stipe, to indicate the upper and lower stipes. The separated stipes contained 2-4 mm of upper stipes and 5-6 nun of lower stipes. For the study using separated upper stipes, mushrooms were dissected directly into upper stipes with a length of 3-5 mm. The separated stipes or upper stipes were put upside down on the test agar containing various mushroom supernatants or ODA concentrations; i.e., the upper sides in contact with the agar surface (FIG. 12). All petri dishes were covered and stored at 12° C. The length of separated stipes and upper stipes was measured using a vernier caliper before and after certain days of storage.
Sterile ODA solutions were aseptically added into the autoclaved agar solutions to achieve the desired final ODA concentrations. The agar solution was then dispensed into dishes, ca 20.8 mL per dish. The level of ODA tested included 10^-4, 10^-5, 10^-6, 10^-7, and 10^-8 M. Mushrooms (hybrid off-white) from 6 different crops were used to study their postharvest growth. In the first 2 experiments, mushroom stipes were measured after 4-day storage at 12° C. In order to prevent stipe deterioration and desiccation of the test agar, in the following experiments mushroom stipes were measured after 3-day storage at 12° C.
The experimental data were subjected to a single classification analysis of variance (AOV) for a completely randomized design (Steele et al., 1980). Fisher's protected least significant difference (LSD) was applied to separate the means. The level of significance used in this research was 0.05.
Since the upper stipe was the major portion which responded to crude preparations of ODA, the following experiment used only upper stipes and applied pure ODA solns to the test agar. Because desiccation of the test agar sometimes occurred after 4 days of storage, in the third replication of this experiment and in subsequent experiments, the stipes were measured after 3 days of storage.

## O=C/C=C/CCCCCCC(=O)O [ODA, 10-oxo-trans-8-decenoic acid]
[1]; 2×10^-4 and 10^-4 M (36.8 and 18.4 ppm)
  linear growth rate of mycelia (in words): greatly increased
[1]; 10^-5 M (1.84 ppm)
  linear growth rate of mycelia (in words): slightly increased
[1]; Agaricus bisporus, ODA 2 × 10^-4 M (36.8 ppm), control 1.00 d, significance letter a, read-out: Relative linear growth rate
  activity at 200 µM: 188%
[1]; Agaricus bisporus, ODA 10^-4 M (18.4 ppm), control 1.00 d, significance letter b, read-out: Relative linear growth rate
  activity at 100 µM: 150%
[1]; Agaricus bisporus, ODA 10^-5 M (1.84 ppm), control 1.00 d, significance letter c, read-out: Relative linear growth rate
  activity at 10 µM: 114%
[1]; Agaricus bisporus, ODA 10^-6 M (0.184 ppm), control 1.00 d, significance letters cd, read-out: Relative linear growth rate
  activity at 1 µM: 110%
[1]; Agaricus bisporus, ODA 10^-7 M (0.0184 ppm), control 1.00 d, significance letters cd, read-out: Relative linear growth rate
  activity at 0.1 µM: 105%
[1]; ODA 2 × 10^-4 M (36.8 ppm) in PDY agar
  Linear growth rate: 9.85 mm/wk
[1]; ODA 10^-4 M (18.4 ppm) in PDY agar
  Linear growth rate: 8.42 mm/wk
[1]; ODA 10^-5 M (1.84 ppm) in PDY agar
  Linear growth rate: 6.40 mm/wk
[1]; ODA 10^-6 M (0.184 ppm) in PDY agar
  Linear growth rate: 6.17 mm/wk
[1]; ODA 10^-7 M (0.0184 ppm) in PDY agar
  Linear growth rate: 5.90 mm/wk
[1]; PDY agar and broth, linear growth, dry matter and laccase activity
  effect on mushroom mycelial growth (in words): significant stimulatory effect
[2]
  elongation of lower stipes (in words): no differences
[3]; ODA 10^-4 M (18.4 ppm), rep 1, 4-day storage, control 34.3
  % Elongation of upper stipes: 34.8%
[3]; ODA 10^-4 M (18.4 ppm), rep 2, 4-day storage, control 33.3
  % Elongation of upper stipes: 40.1%
[3]; ODA 10^-4 M (18.4 ppm), rep 3, 3-day storage, control 20.5
  % Elongation of upper stipes: 17.7%
[3]; ODA 10^-5 M (1.84 ppm), rep 1, 4-day storage, control 34.3
  % Elongation of upper stipes: 35.5%
[3]; ODA 10^-5 M (1.84 ppm), rep 2, 4-day storage, control 33.3
  % Elongation of upper stipes: 36.5%
[3]; ODA 10^-5 M (1.84 ppm), rep 3, 3-day storage, control 20.5
  % Elongation of upper stipes: 19.3%
[3]; ODA 10^-6 M (0.184 ppm), rep 1, 4-day storage, control 34.3
  % Elongation of upper stipes: 39.9%
[3]; ODA 10^-6 M (0.184 ppm), rep 2, 4-day storage, control 33.3
  % Elongation of upper stipes: 35.7%
[3]; ODA 10^-6 M (0.184 ppm), rep 3, 3-day storage, control 20.5
  % Elongation of upper stipes: 16.6%
[3]; ODA 10^-7 M (0.0184 ppm), rep 1, 4-day storage, control 34.3
  % Elongation of upper stipes: 41.0%
[3]; ODA 10^-7 M (0.0184 ppm), rep 2, 4-day storage, control 33.3
  % Elongation of upper stipes: 42.3%
[3]; ODA 10^-7 M (0.0184 ppm), rep 3, 3-day storage, control 20.5
  % Elongation of upper stipes: 18.1%
[3]; ODA 10^-8 M (0.00184 ppm), rep 1, 4-day storage, control 34.3
  % Elongation of upper stipes: 30.1%
[3]; ODA 10^-8 M (0.00184 ppm), rep 2, 4-day storage, control 33.3
  % Elongation of upper stipes: 39.6%
[3]; ODA 10^-8 M (0.00184 ppm), rep 3, 3-day storage, control 20.5
  % Elongation of upper stipes: 15.8%
[3]; pure ODA, upper stipes only
  elongation of upper stipes among treatments (in words): no differences
